Six compounds from US20080009479A1, “Tetrahydrobenzazepines as Histamine H3 Receptor Ligands” (GLAXO GROUP LIMITED, priority 2004, published 2008) can be followed below.

A value given as a limit tells only on which side of the number the result lay.

Experiment [1] concerns the target T1, human histamine H3 receptor (Homo sapiens, UniProt Q9Y5N1).
T1 construct: expressed in transfected cells; host or cells: CHO K1 cells carrying the pSwitch regulatory plasmid, transfected with pGeneH3 and induced with mifepristone; clone 3H3; membranes prepared from these cells
The experiment is described as follows: Histamine H3 functional antagonist assay (method B). Format: biochemical. As to conditions: [35S]GTPγS LeadSeeker SPA, CHO membranes, histamine at EC80, 384 well; read-out: antagonism pKb, histamine H3 functional antagonist assay (method B) (converted). The text has this: (§1) A membrane preparation containing histamine H3 receptors may be prepared in accordance with the following procedures:
DNA encoding the human histamine H3 gene (Huvar, A. et al. (1999) Mol. Pharmacol. 55(6), 1101-1107) was cloned into a holding vector, pCDNA3.1 TOPO (InVitrogen) and its cDNA was isolated from this vector by restriction digestion of plasmid DNA with the enzymes BamH1 and Not-1 and ligated into the inducible expression vector pGene (InVitrogen) digested with the same enzymes. The GeneSwitch™ system (a system where in transgene expression is switched off in the absence of an inducer and switched on in the presence of an inducer) was performed as described in U.S. Pat. Nos. 5,364,791; 5,874,534; and 5,935,934. Ligated DNA was transformed into competent DH5α E. coli host bacterial cells and plated onto Luria Broth (LB) agar containing Zeocin™ (an antibiotic which allows the selection of cells expressing the sh ble gene which is present on pGene and pSwitch) at 50 μg ml^−1. Colonies containing the re-ligated plasmid were identified by restriction analysis. DNA for transfection into mammalian cells was prepared from 250 ml cultures of the host bacterium containing the pGeneH3 plasmid and isolated using a DNA preparation kit (Qiagen Midi-Prep) as per manufacturers guidelines (Qiagen). […]
(§2) 10-14 days post selection 10 nM Mifepristone (InVitrogen), was added to the culture medium to induce the expression of the receptor. […] Receptor bound antibody was detected by incubation of the cells for 60 minutes on ice with a goat anti rabbit antibody, conjugated with Alexa 488 fluorescence marker (Molecular Probes). Following two further washes with Sorting Medium, cells were filtered through a 50 μm Filcon™ (BD Biosciences) and then analysed on a FACS Vantage SE Flow Cytometer fitted with an Automatic Cell Deposition Unit. […]

The target of experiment [2] is T1, human histamine H3 receptor. The experiment can be described thus: Histamine H3 functional antagonist assay (method C). Format: biochemical. As to conditions: [35S]GTPγS LeadSeeker SPA, CHO membranes, histamine at EC80, 384 well, compound in DMSO; read-out: antagonism pKb, histamine H3 functional antagonist assay (method C) (converted).
Text: as §1
(§3) DNA encoding the human histamine H3 gene (Huvar, A. et al. (1999) Mol. Pharmacol. 55(6), 1101-1107) was cloned into a holding vector, pCDNA3.1 TOPO (InVitrogen) and its cDNA was isolated from this vector by restriction digestion of plasmid DNA with the enzymes BamH1 and Not-1 and ligated into the inducible expression vector pGene (InVitrogen) digested with the same enzymes. The GeneSwitch™ system (a system where in transgene expression is switched off in the absence of an inducer and switched on in the presence of an inducer) was performed as described in U.S. Pat. Nos. 5,364,791; 5,874,534; and 5,935,934. […]
as §2

The target of another experiment is T2, human H1 receptor (Homo sapiens, UniProt P35367).
T2 construct: expressed in transfected cells; host or cells: Chinese hamster ovary cells stably expressing the human H1 receptor
T2 sequence (P35367 whole entry): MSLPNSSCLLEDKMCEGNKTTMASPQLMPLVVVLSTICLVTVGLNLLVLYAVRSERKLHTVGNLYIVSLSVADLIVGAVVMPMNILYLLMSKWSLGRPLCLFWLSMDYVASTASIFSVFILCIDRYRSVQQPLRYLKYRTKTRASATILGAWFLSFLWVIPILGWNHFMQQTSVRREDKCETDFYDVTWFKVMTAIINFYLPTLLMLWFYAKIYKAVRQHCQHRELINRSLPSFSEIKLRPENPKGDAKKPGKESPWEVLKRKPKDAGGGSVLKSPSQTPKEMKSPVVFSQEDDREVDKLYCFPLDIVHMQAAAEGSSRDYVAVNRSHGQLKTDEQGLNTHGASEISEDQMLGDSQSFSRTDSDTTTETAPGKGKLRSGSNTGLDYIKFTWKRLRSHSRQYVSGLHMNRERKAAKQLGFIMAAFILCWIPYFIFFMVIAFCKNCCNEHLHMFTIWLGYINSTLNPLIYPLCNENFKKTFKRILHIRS
The experiment can be described thus: Histamine H1 functional antagonist assay (method A). Format: cell-based. Conditions: FLIPR, FLUO4AM, suppression of histamine induced increase in fluorescence; read-out: antagonism pKb, histamine H1 functional antagonist assay (method A) (converted). The method, then: A histamine H1 cell line may be generated in accordance with the following procedure:
The human H1 receptor was cloned using known procedures described in the literature [Biochem. Biophys. Res. Commun. 1994, 201(2), 894]. Chinese hamster ovary cells stably expressing the human H1 receptor were generated according to known procedures described in the literature [Br. J. Pharmacol. 1996, 117(6), 1071].
(IV) Histamine H1 Functional Antagonist Assay (Method A)
The compound is assayed in a black walled clear bottom 384-well plate with cells seeded at 10000 cells/well. Tyrodes buffer is used throughout (NaCl 145 mM, KCl 2.5 mM, HEPES 10 mM, glucose 10 mM, MgCl2 1.2 mM, CaCl2 1.5 mM, probenecid 2.5 mM, pH adjusted to 7.40 with NaOH 1.0 M). Each well is treated with 10 μl of a solution of FLUO4AM (10 μM in Tyrodes buffer at pH 7.40) and plates are then incubated for 60 minutes at 37° C. Wells are then washed with Tyrodes buffer using a EMBLA cell washer system, leaving 40 μl buffer in each well, and then treated with 10 μl of test compound in Tyrodes buffer. […]
Functional antagonism is indicated by a suppression of histamine induced increase in fluorescence, as measured by the FLIPR system (Molecular Devices). By means of concentration effect curves, functional potencies are determined using standard pharmacological mathematical analysis.

Experiment [3] concerns the target T1, human histamine H3 receptor. The experiment is described as follows: Histamine H3 functional antagonist assay (method A). Format: biochemical. Conditions: [35S]GTPγS SPA, CHO membranes, histamine 0.3 μM, 96 well.
Text: as §1, §3, §2

T1 sequence (Q9Y5N1 whole entry): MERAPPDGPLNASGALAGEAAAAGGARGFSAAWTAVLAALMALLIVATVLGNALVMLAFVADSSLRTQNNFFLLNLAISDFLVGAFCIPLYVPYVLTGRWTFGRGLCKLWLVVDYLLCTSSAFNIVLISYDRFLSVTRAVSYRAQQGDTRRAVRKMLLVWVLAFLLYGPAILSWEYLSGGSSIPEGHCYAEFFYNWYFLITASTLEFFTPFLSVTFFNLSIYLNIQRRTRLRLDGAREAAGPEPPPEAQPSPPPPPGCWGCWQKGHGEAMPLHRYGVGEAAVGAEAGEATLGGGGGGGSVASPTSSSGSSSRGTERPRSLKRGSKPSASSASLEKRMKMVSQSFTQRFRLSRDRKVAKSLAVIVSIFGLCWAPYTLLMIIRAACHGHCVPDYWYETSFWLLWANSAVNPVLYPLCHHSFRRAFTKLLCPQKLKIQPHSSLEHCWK

On to `O=C1CCCN1c1cnc(Oc2ccc3c(c2)CCN(CC2CC2)CC3)cn1` [Example E1, 1-(5-{[3-(Cyclopropylmethyl)-2,3,4,5-tetrahydro-1H-3-benzazepin-7-yl]oxy}-2-pyrazinyl)-2-pyrrolidinone], for which the Kb in experiment [1] and in experiment [2] was < 1 nM each time.
As for `O=C1CCCN1c1ccc(Oc2ccc3c(c2)CCN(CC2CC2)CC3)nc1` [Example E13, 1-(6-{[3-(Cyclopropylmethyl)-2,3,4,5-tetrahydro-1H-3-benzazepin-7-yl]oxy}-3-pyridinyl)-2-pyrrolidinone], the Kb in experiment [1] is < 1 nM.
Same read-out and setting: the figure for `CCN1CCc2ccc(Oc3ccc(N4CCCC4=O)cn3)cc2CC1` [Example E14, 1-{6-[(3-Ethyl-2,3,4,5-tetrahydro-1H-3-benzazepin-7-yl)oxy]-3-pyridinyl}-2-pyrrolidinone] is < 1 nM.
`CCC(C)N1CCc2ccc(Oc3ccc(N4CCCC4=O)cn3)cc2CC1` (centres unmarked) [Example E15, 1-(6-{[3-(1-Methylpropyl)-2,3,4,5-tetrahydro-1H-3-benzazepin-7-yl]oxy}-3-pyridinyl)-2-pyrrolidinone]: the Kb in experiment [2] was < 1 nM.
With `c1ccc(COc2ccc3c(c2)CCN(CC2CC2)CC3)cc1` [Example E19, 3-(Cyclopropylmethyl)-7-[(phenylmethyl)oxy]-2,3,4,5-tetrahydro-1H-3-benzazepine], the Kb was > 316 nM at human H1 receptor and < 10 nM in experiment [3] (antagonism pKb, histamine H3 functional antagonist assay (method A)).
On to `c1cc2c(cc1OCCCC1CCCCC1)CCN(CC1CC1)CC2` [Example E20, 7-[(3-Cyclohexylpropyl)oxy]-3-(cyclopropylmethyl)-2,3,4,5-tetrahydro-1H-3-benzazepine], for which the Kb in experiment [3] (read-out: antagonism pKb, histamine H3 functional antagonist assay (method A) (converted)) is < 100 nM.
